Experiment [1] deals with NCM460 normal colonocytes. Put plainly: Growth assay (Cell Titer Glo), NCM460 normal colonocytes. In kind it is cell-based, human. The method, then:
Human colon tumor cell lines, HCT116, HT29, SW480 and Caco-2 were obtained from the American Type Culture Collection (ATCC) and grown under standard cell culture conditions in RPMI 1640 medium containing 5% serum at 37°C in a humidified atmosphere with 5% CO2. The human colonocyte line, NCM460, that is derived from normal human colon mucosa was obtained from INCELL and grown in INCELL’s enriched M3:10 medium with 10% serum as recommended by supplier. All cell lines were expanded upon delivery, and numerous aliquots of low passage cells were preserved in liquid N2. Cells were passaged no longer than 2 months. Tumor cell lines obtained from ATCC were characterized by STR profiling as performed by ATCC. The NCM460 line was characterized by INCELL as described previously (e.g. tumorigenicity testing). No additional re-authentication of the cell lines was performed except for experimental reasons (e.g. confirmation of cell doubling time, morphology, sensitivity to SS, PDE5/10 expression levels, etc).
Cells were plated in 96-well microtiter plates at a density of 5,000 cells per well. For drug treatment, cells were treated with compound or vehicle, and incubated at 37°C for 72 hours. All growth assays were performed in 5% serum unless otherwise noted. Deionized water was used as vehicle control for papaverine. For siRNA assays, cells were transfected with siRNA under the same condition described above. The effect of treatment on cell growth was measured using the Cell Titer Glo Assay as specified by the manufacturer (Promega).
(§1) The IC50 values were determined as described previously. All experiments were repeated a minimum of three times to determine the reproducibility of the results. All error bars represent standard error of the mean (SEM). Statistical analysis of differences between samples was performed using the Student’s t-test. A P value of < 0.05 was considered statistically significant.
On the technique in general: In ATP-based viability assays light output follows the ATP content of the culture.

Experiment [2] concerns PKG activity (phospho-Ser239 VASP) in HCT116 colon tumor cells. Nature of the experiment: Western blotting of VASP phosphorylation, HCT116. The experiment is classed as cell-based, human. The method, then:
Western blotting was performed as described previously. Cells were treated with ADT-094 or vehicle for 8 hours before cell lysates were collected.
A general note: In western blotting, separated proteins are transferred to a membrane and probed.

Experiment [3] concerns intracellular cGMP in HCT116 colon tumor cells. Put plainly: cGMP assay (EIA), HCT116. To be noted: 45 min of treatment. The experiment is classed as cell-based, human. How it is done:
Cells were plated at a density of 1 × 10^6 cells per 10 cm tissue culture dish, incubated for 48 hours, and treated with ADT-094 or vehicle control. After 45 min of treatment, cells were lysed and assayed for cGMP content using the cGMP Direct Biotrak EIA kit (GE Healthcare Life Sciences). The assay was done according to the manufacturer’s specifications.

A further experiment has as its target T1, PDE5 (Homo sapiens, UniProt O76074).
T1 construct: purchased BPS Biosciences
Put plainly: IMAP fluorescence polarization PDE assay, recombinant PDE5. The experiment is classed as biochemical. Particulars: recombinant enzyme. The method, then:
Recombinant PDE isozymes were purchased from BPS Biosciences. The PDE10 antibody was purchased from GeneTex, while the PDE5 antibody was purchased from Cell Signaling Technologies. Non-targeting control siRNA and PDE10 specific siRNAs were purchased from Qiagen. RNAiMAX transfection reagent was purchased from Invitrogen. DMSO was used as vehicle for all compounds unless otherwise noted. All other reagents were purchased from Sigma.
PDE activity was measured using the IMAP fluorescence polarization (FP) PDE assay (Molecular Devices) in which binding of hydrolyzed fluorescent cyclic nucleotide substrate to the IMAP reagent increases FP as described previously.
as §1

Bounds are passed on as bounds.

These results are taken from paper PMC4694998, “Suppression of β-catenin/TCF transcriptional activity and colon tumor cell growth by dual inhibition of PDE5 and 10” (Oncotarget, 2015).

For orientation: IC50 means the concentration at which inhibition is half-maximal. As to `COc1ccc2c(c1)C(CC(=O)NCc1ccco1)=C(C)/C2=C/c1cc(OC)c(OC)c(OC)c1` [ADT-094, (Z)-N-(furan-2-ylmethyl)-2-(5-methoxy-2-methyl-1-(3,4,5-trimethoxybenzylidene)-1H-inden-3-yl) acetamide], the IC50 was over 10000 nM in experiment [1] (Homo sapiens, NCM460, Figure 3C, luciferase-based ATP assay, 72 hours, read-out: NCM460 growth IC50) and 2400 nM at PDE5. Also, the “growth of normal colonocytes (tumor cell selectivity)” value in experiment [1] (in words) is “essentially refractory to treatment”. In experiment [2], the “phospho-Ser239 VASP levels (PKG activity)” value is “increased”. The “intracellular cGMP levels” value in experiment [3] was “significantly increased”.
